These results are taken from US20240368174A1, “Antiviral Heterocyclic Compounds” (Enanta Pharmaceuticals, Inc., priority 2023, published 2024).

Usually pEC50 stands for −log10 of the EC50, conventionally taken in molar units. A high value points to a low EC50.

Assay [1] has as its system HMPV clinical isolate A2 strain TN 94-49. As to the kind of experiment: HMPV antiviral assay, Method 1 (LLC-MK2 cells, ATP-Lite). Format: cell-based. The following applies: human metapneumovirus, hMPV A2 TN/94-49, LLC-MK2 cells. In a few lines: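 LLC-MK2 cells (5,000/well) infected in suspension with HMPV A2 TN 94-49 at MOI 0.005 in serum-free OptiMEM with 2 μg/mL final TPCK-trypsin, compounds in duplicate from 2 μM top, 2.5-fold, 10 points. After 7 days at 37° C, cell health by ATP-Lite luminescence normalised to virus and cell controls; EC50 from four-parameter fit.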

For assay [2] the test system is unchanged. Briefly: HMPV antiviral assay, Method 2 (LLC-MK2 cells with CP-100-356, ATP-Lite). Format: cell-based. The following applies: human metapneumovirus; hMPV A2 TN/94-49, LLC-MK2 cells with CP-100-356, Method 2. In outline:
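LLC-MK2 rhesus kidney cells (5,000/well) infected in suspension with HMPV A2 TN 94-49 at MOI 0.16, in serum-free medium with final 2 μg/mL TPCK-trypsin and 2 μM CP-100-356. Compounds tested in duplicate from 200 nM, 2.5-fold, 10 points; 7 days at 37 °C. Cell health by ATP-Lite luminescence; EC50 by four-parameter fit.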

Structures are written as SMILES. pEC50: −log10 of the molar value.

For `C[C@@H](O)COc1cc(C(=O)NC[C@](O)(c2cc3c(c(-c4ccc(F)c(Cl)c4F)n2)OC[C@]3(C)C(N)=O)C2CC2)cc2cn(C3CC3)nc12` [Example 38], the results for the pEC50 in assay [1] and in assay [2] were less than 6.30 and greater than 6.70, respectively.

Turning to `COc1cc(C(=O)NC[C@@](O)(c2ccc(F)cc2)c2cc3c(c(-c4ccc(F)c(Cl)c4Cl)n2)OC[C@]3(C)C(N)=O)cc2cn(C3CC3)nc12` [Example 41], the pEC50 in assay [1] is greater than 6.30; in assay [2], greater than 6.70.

In the case of `COc1cc(C(=O)NC[C@@](O)(c2ccc(F)cc2)c2cc3c(c(-c4ccc(F)c(Cl)c4Cl)n2)OC[C@]3(C)C(N)=O)cc2cn(C3(F)CC3)nc12` [Example 43], the pEC50 is greater than 6.30 in assay [1] and greater than 6.70 in assay [2].

For the molecule `COc1cc(C(=O)NC[C@](O)(c2cc3c(c(-c4cc(F)c(F)cc4C)n2)OC[C@]3(C)C(N)=O)C2CC2)cc2cn(C3CC3)nc12` [Example 50], the pEC50 in assay [1] is less than 6.30; in assay [2], greater than 6.70.

In the case of `COc1cc(C(=O)NC[C@](O)(c2cc3c(c(-c4ccc(F)c(Cl)c4Cl)n2)OC[C@]3(C)C(N)=O)C(F)(F)F)cc2cn(C3CC3)nc12` [Example 65], the pEC50 was greater than 6.30 in assay [1] and greater than 6.70 in assay [2].

For the molecule `COc1cc(C(=O)NC[C@](O)(c2cc3c(c(-c4ccc(F)c(Cl)c4Cl)n2)OC[C@]3(C)C(N)=O)C(F)(F)F)cc2cn(C(F)F)nc12` [Example 66], the pEC50 is greater than 6.30 in assay [1] and greater than 6.70 in assay [2].

Take `COc1cc(C(=O)NC[C@](O)(c2cc3c(c(-c4ccc(F)c(C)c4Cl)n2)OC[C@]3(C)C(N)=O)C2CC2)cc2cn(C3CC3)nc12` [Example 69]: the negative-log EC50 (pEC50) was greater than 6.30 in assay [1] and greater than 6.70 in assay [2].

For `COc1cc(C(=O)NC[C@](O)(c2cc3c(c(-c4ccc(F)c(F)c4C)n2)OC[C@]3(C)C(N)=O)C2CC2)cc2cn(C3CC3)nc12` [Example 70], the negative-log EC50 (pEC50) in assay [1] was greater than 6.30; in assay [2], greater than 6.70.

Take `CCc1cc(-c2nc([C@@](O)(CNC(=O)c3cc(OC)c4nn(C5CC5)cc4c3)C3CC3)cc3c2OC[C@]3(C)C(N)=O)ccc1F` [Example 71]: the negative-log EC50 (pEC50) in assay [1] is less than 6.30; in assay [2], less than 6.70.

Turning to `COc1cc(C(=O)NC[C@](O)(c2cc3c(c(-c4cc(Cl)c(F)cc4F)n2)OC[C@]3(C)C(N)=O)C2CC2)cn2cc(C3CC3)nc12` [Example 77], the values for the pEC50 in assay [1] and in assay [2] were greater than 6.30 and greater than 6.70, respectively.

On to `COc1cc(C(=O)NC[C@@](O)(c2ccccc2)c2cc3c(c(-c4cc(Cl)c(F)cc4F)n2)OC[C@]3(C)C(N)=O)cc2oc(C3CC3)nc12` [Example 85], for which the values for the negative logarithm of the EC50 (pEC50) in assay [1] and in assay [2] were greater than 6.30 and greater than 6.70, respectively.

For `C[C@]1(C(N)=O)COc2c1cc([C@@](O)(CNC(=O)c1ccc3nc(C4CC4)oc3c1)c1ccccc1)nc2-c1cc(Cl)c(F)cc1F` [Example 88], the figures for the negative logarithm of the EC50 (pEC50) in assay [1] and in assay [2] were greater than 6.30 and greater than 6.70, respectively.

Regarding `COc1cc(C(=O)NC[C@@](O)(c2ccccc2)c2cc3c(c(-c4cc(Cl)c(F)cc4F)n2)OC[C@]3(C)C(N)=O)cc2cc(C)nnc12` [Example 89], the results for the negative logarithm of the EC50 (pEC50) in assay [1] and in assay [2] were greater than 6.30 and greater than 6.70, respectively.

As for `COc1cc(C(=O)NC[C@@](O)(c2ccccc2)c2cc3c(c(-c4cc(Cl)c(F)cc4F)n2)OC[C@]3(C)C(N)=O)cc2cc(C3CC3)nnc12` [Example 90], the negative-log EC50 (pEC50) in assay [1] was greater than 6.30; in assay [2], greater than 6.70.

As to `COc1cc(C(=O)NC[C@@](O)(c2ccc(C(F)(F)F)cc2)c2cc3c(c(-c4cc(Cl)c(F)cc4F)n2)OC[C@]3(C)C(N)=O)cc2cn(C3CC3)nc12` [Example 130], the pEC50 in assay [1] is less than 6.30; in assay [2], less than 6.70.

For the molecule `COc1cc(C(=O)NC[C@@](O)(c2cccnc2)c2cc3c(c(-c4cc(Cl)c(F)cc4F)n2)OC[C@]3(C)C(N)=O)cc2cn(C3CC3)nc12` [Example 131], the pEC50 in assay [1] was greater than 6.30; in assay [2], greater than 6.70.

In the case of `COc1cc(C(=O)NC[C@@](O)(c2cccc(F)c2)c2cc3c(c(-c4cc(Cl)c(F)cc4F)n2)OC[C@]3(C)C(N)=O)cc2cn(C3CC3)nc12` [Example 132], the figures for the pEC50 in assay [1] and in assay [2] were greater than 6.30 and greater than 6.70, respectively.

Regarding `COc1cc(C(=O)NC[C@@](O)(c2cccc(F)c2)c2cc3c(c(-c4cc(Cl)c(F)cc4F)n2)OC[C@]3(C)C(N)=O)cc2cc(C3CC3)nn12` [Example 133], the figures for the negative logarithm of the EC50 (pEC50) in assay [1] and in assay [2] were greater than 6.30 and greater than 6.70, respectively.

For `[2H]C([2H])([2H])NC(=O)[C@@]1(C)COc2c1cc([C@@](O)(CNC(=O)c1cc(OC)c3nn(C4CC4)cc3c1)c1ccccc1)nc2-c1cc(Cl)c(F)cc1F` [Example 140], the negative logarithm of the EC50 (pEC50) was greater than 6.30 in assay [1] and greater than 6.70 in assay [2].

With `COc1cc(C(=O)NC[C@@](O)(c2ccccc2)c2cc3c(c(-c4cc(Cl)ccc4F)n2)OC[C@]3(C)C(N)=O)cc2cn(C3CC3)nc12` [Example 144], the negative-log EC50 (pEC50) in assay [1] was greater than 6.30; in assay [2], greater than 6.70.

For `COc1cc(C(=O)NC[C@@](O)(c2ccccc2)c2cc3c(c(-c4cc(Cl)ccc4F)n2)OC[C@]3(C)C(N)=O)cc2cn(C(F)F)nc12` [Example 145], the negative logarithm of the EC50 (pEC50) was greater than 6.30 in assay [1] and greater than 6.70 in assay [2].

On to `COc1cc(C(=O)NC[C@@](O)(c2ccccc2)c2cc3c(c(-c4cc(Cl)ccc4F)n2)OC[C@]3(C)C(N)=O)cc2cc(C3CC3)nn12` [Example 146], for which the negative logarithm of the EC50 (pEC50) in assay [1] is greater than 6.30; in assay [2] it was greater than 6.70.

With `COc1cc(C(=O)NC[C@@](O)(c2ccccc2)c2cc3c(c(-c4cc(C(F)(F)F)ccc4F)n2)OC[C@]3(C)C(N)=O)cc2cn(C3CC3)nc12` [Example 147], the pEC50 in assay [1] was greater than 6.30; in assay [2], greater than 6.70.

`COc1cc(C(=O)NC[C@@](O)(c2ccccc2)c2cc3c(c(-c4cc(Cl)c(F)cc4F)n2)OC[C@]3(C)C(N)=O)cc2sc(N)nc12` [Example 157]: the negative-log EC50 (pEC50) is greater than 6.30 in assay [1] and greater than 6.70 in assay [2].

For the molecule `COc1cc(C(=O)NC[C@@](O)(c2ccccc2)c2cc3c(c(-c4cc(Cl)c(F)cc4F)n2)OC[C@]3(C)C(N)=O)cc2cn(C3(F)CC3)nc12` [Example 158], the results for the pEC50 in assay [1] and in assay [2] were greater than 6.30 and greater than 6.70, respectively.

Regarding `COc1cccc([C@](O)(CNC(=O)c2cc(OC)c3nn(C4CC4)cc3c2)c2cc3c(c(-c4cc(Cl)c(F)cc4F)n2)OC[C@]3(C)C(N)=O)c1` [Example 160], the pEC50 is greater than 6.30 in assay [1] and greater than 6.70 in assay [2].

As to `COc1ccc([C@](O)(CNC(=O)c2cc(OC)c3nn(C4CC4)cc3c2)c2cc3c(c(-c4cc(Cl)c(F)cc4F)n2)OC[C@]3(C)C(N)=O)cc1` [Example 165], the pEC50 in assay [1] is greater than 6.30; in assay [2], greater than 6.70.

With `COc1ccc([C@](O)(CNC(=O)c2cc(OC)c3nn(C4(F)CC4)cc3c2)c2cc3c(c(-c4cc(Cl)c(F)cc4F)n2)OC[C@]3(C)C(N)=O)cc1` [Example 166], the pEC50 is greater than 6.30 in assay [1] and greater than 6.70 in assay [2].

On to `COc1cc(C(=O)NC[C@@](O)(c2ccccc2)c2cc3c(c(-c4cc(F)c(F)cc4F)n2)OC[C@]3(C)C(N)=O)cc2cn(C3(F)CC3)nc12` [Example 170], for which the negative-log EC50 (pEC50) in assay [1] was greater than 6.30; in assay [2], greater than 6.70.

With `COc1cc(C(=O)NC[C@@](O)(c2ccccc2)c2cc3c(c(-c4cc(F)c(F)cc4F)n2)OC[C@]3(C)C(N)=O)cc2cn(C3CC3)nc12` [Example 171], the negative-log EC50 (pEC50) in assay [1] was greater than 6.30; in assay [2], greater than 6.70.

Turning to `COc1cc(C(=O)NC[C@@](O)(c2ccccc2)c2cc3c(c(-c4cc(F)c(F)cc4F)n2)OC[C@]3(C)C(N)=O)cc2cn(C(F)F)nc12` [Example 172], the results for the negative-log EC50 (pEC50) in assay [1] and in assay [2] were greater than 6.30 and greater than 6.70, respectively.

Regarding `COc1cc(C(=O)NC[C@@](O)(c2ccsc2)c2cc3c(c(-c4cc(F)c(F)cc4F)n2)OC[C@]3(C)C(N)=O)cc2cn(C3(F)CC3)nc12` [Example 179], the negative-log EC50 (pEC50) in assay [1] is greater than 6.30; in assay [2] it was greater than 6.70.

For `Cc1cnc2c(OC3CC3)cc(C(=O)NC[C@@](O)(c3ccccc3)c3cc4c(c(-c5cc(Cl)c(F)cc5F)n3)OC[C@]4(C)C(N)=O)cc2c1` [Example 182], the figures for the negative logarithm of the EC50 (pEC50) in assay [1] and in assay [2] were greater than 6.30 and greater than 6.70, respectively.

As to `Cc1cnc2c(OC(F)F)cc(C(=O)NC[C@@](O)(c3ccccc3)c3cc4c(c(-c5cc(Cl)c(F)cc5F)n3)OC[C@]4(C)C(N)=O)cc2c1` [Example 183], the pEC50 in assay [1] is greater than 6.30; in assay [2], greater than 6.70.

As for `COc1cc(C(=O)NC[C@@](O)(c2ccccc2)c2cc3c(c(-c4cc(Cl)c(F)cc4F)n2)OC[C@]3(C)C(N)=O)cc2cc(Br)cnc12` [Example 185], the pEC50 in assay [1] was greater than 6.30; in assay [2], greater than 6.70.

`COc1cc(C(=O)NC[C@@](O)(c2ccccc2)c2cc3c(c(-c4cc(Cl)c(F)cc4F)n2)OC[C@]3(C)C(N)=O)cc2cc(C(F)F)nnc12` [Example 186]: the pEC50 in assay [1] was less than 6.30; in assay [2], greater than 6.70.

Turning to `COc1cc(C(=O)NC[C@@](O)(c2ccccc2)c2cc3c(c(-c4cc(Cl)c(F)cc4F)n2)OC[C@]3(C)C(N)=O)cc2cc(Cl)cnc12` [Example 187], the negative-log EC50 (pEC50) in assay [1] was greater than 6.30; in assay [2], greater than 6.70.

With `COc1cc(C(=O)NC[C@@](O)(c2ccccc2)c2cc3c(c(-c4ccc(F)c(F)c4Cl)n2)OC[C@]3(C)C(N)=O)cc2cn(C(F)F)nc12` [Example 213], the pEC50 in assay [1] was greater than 6.30; in assay [2] it was greater than 6.70.

In the case of `COc1cc(C(=O)NC[C@@](O)(c2ccccc2)c2cc3c(c(-c4ccc(F)c(Cl)c4Cl)n2)OC[C@]3(C)C(N)=O)cc2cn(C(F)F)nc12` [Example 258], the figures for the pEC50 in assay [1] and in assay [2] were greater than 6.30 and greater than 6.70, respectively.
